From EP1181269B1, “CELL PROLIFERATION INHIBITORS” (ABBOTT LABORATORIES, priority 1999, dated 2000)

How the values were obtained:
[1] = test system: human colon adenocarcinoma, MDR positive (HCT-15) cells; test: 48-hour cellular proliferation assay (sulforhodamine staining, 96-well microtitre format); type: cell-based; conditions: 48 hours in culture, 0% = DMSO control, 100% = trichloroacetic acid-treated well; for inhibition at 100 µM: Homo sapiens, HCT-15, 10^-4M compound
Experimental: (§1) Compounds of this invention were tested in a 48-hour cellular proliferation assay which uses human colon adenocarcinoma, MDR positive (HCT-15) cells, and human lung large cell carcinoma, MDR negative (NCI-H460) cells, in the 96-well microtitre format described in Skehan P., et al. New Colorimetric Cytotoxicity Assay for Anticancer Drug Screening. 1990, J. Natl. Cancer Inst. 82:1107-1112. Briefly, the wells of a microtitre plate were charged sequentially with cultured cells and compounds of the invention (1.0 x 10^-4 to 1.0 x 10^-11 M in 10% DMSO prepared by dissolving compounds of the invention in DMSO and adding 11 µL of the DMSO solution to 100 µL of culture medium for a final DMSO concentration of 10%). Two of the following controls were also present in each microtitre plate: a solvent (DMSO) control without drug that yielded a 0% inhibition level and a trichloroacetic acid-treated well that yielded a 100% inhibition level. The cells were grown in culture (37 °C, 5% CO2 atmosphere) for 48 hours then fixed by the addition of trichloroacetic acid. The wells were stained with sulforhodamine, washed with 1% acetic acid, and treated with 0.01 M tris buffer (100 µL) to solubilize the adherent dye. The absorbance of the dye solution was measured with a Molecular Devices SpechaMax340 plate reader. The percent inhibition values were obtained by calculating the proportional response of the experimental values to the absorbance values of the controls.

[2] = test system: human lung large cell carcinoma, MDR negative (NCI-H460) cells; test: as above; type: cell-based; conditions: 10^-4M compound, 48 hours in culture, 0% = DMSO control, 100% = trichloroacetic acid-treated well; for inhibition at 100 µM: Homo sapiens, read-out: NCI-460 % inhibition at 10^-4M
Experimental: as §1

Structure (SMILES) | inhibition at 100 µM [1] [%] | inhibition at 100 µM [2] [%] | HCT-15 % inhibition at 10^-4M ([1]; 10^-4M compound) [%] | NCI-460 % inhibition at 10^-4M [2] [%]
COc1ccc(S(=O)(=O)Nc2cc(OC)c(OC)c(OC)c2)cc1 [Example 1, 4-methoxy-N-(3,4,5-trimethoxyphenyl)benzenesulfonamide] | 99.4 | 98.5 |  | 
COc1cc(NS(=O)(=O)c2ccc3c(c2)CCN3C=O)cc(OC)c1OC [Example 2, 1-formyl-N-(3,4,5-trimethoxyphenyl)indoline-5-sulfonamide] | 79.9 | 74 |  | 
COc1cc(NS(=O)(=O)c2ccc3c(c2)CCN3)cc(OC)c1OC [Example 3, N-(3,4,5-trimethoxyphenyl)indoline-5-sulfonamide] | 86.2 | 59.3 |  | 
COc1cc(NS(=O)(=O)c2c[nH]c3ccc([N+](=O)[O-])cc23)cc(OC)c1OC [Example 4, 5-nitro-N-(3,4,5-trimethoxyphenyl)-1H-indole-3-sulfonamide] | 15.9 | 41.7 |  | 
COc1cc(NS(=O)(=O)c2ccc3c(c2)CCN3C)cc(OC)c1OC [Example 5, 1-methyl-N-(3,4,5-trimethoxyphenyl)indoline-5-sulfonamide] | 97.6 | 96.1 |  | 
COc1cc(NS(=O)(=O)c2cn(C)c3ccc([N+](=O)[O-])cc23)cc(OC)c1OC [Example 6, 1-methyl-5-nitro-N-(3,4,5-trimethoxyphenyl)-1H-indole-3-sulfonamide] | 50.6 | 45.5 |  | 
COc1cc(NS(=O)(=O)c2cn(C)c3ccc(N)cc23)cc(OC)c1OC [Example 7, 5-amino-1-methyl-N-(3,4,5-trimethoxyphenyl)-1H-indole-3-sulfonamide] | 91.9 | 87 |  | 
COc1cc(NS(=O)(=O)c2c[nH]c3ccc(N)cc23)cc(OC)c1OC [Example 8, 5-amino-N-(3,4,5-trimethoxyphenyl)-1H-indole-3-sulfonamide] | 37 | < 9.1 |  | 
COc1cc(NS(=O)(=O)c2ccc3[nH]ccc3c2)cc(OC)c1OC [Example 9, N-(3,4,5-trimethoxyphenyl)-1H-indole-5-sulfonamide] | 94.1 | 89.1 |  | 
COc1cc(NS(=O)(=O)c2ccc3c(ccn3C)c2)cc(OC)c1OC [Example 10, 1-methyl-N-(3,4,5-trimethoxyphenyl)-1H-indole-5-sulfonamide] | 100 | 100 |  | 
COc1cc(N(C)S(=O)(=O)c2ccc3c(ccn3C)c2)cc(OC)c1OC [Example 11, N,1-dimethyl-N-(3,4,5-trimethoxyphenyl)-1H-indole-5-sulfonamide] | 100 | 99.9 |  | 
COc1cc(S(=O)(=O)Oc2ccc3[nH]ccc3c2)cc(OC)c1OC [Example 15, 1H-indol-5-ol,(3,4,5-trimethoxybenzenesulfonate) ester] |  |  | 100.0 | 100.0
COc1cc(S(=O)(=O)Oc2ccc3c(ccn3C)c2)cc(OC)c1OC [Example 16, 1-methyl-1H-indol-5-yl 3,4,5-trimethoxybenzenesulfonate] | 100 | 100 |  | 
